Results as given in patent US12502434B2, “Compound comprising EZH2 inhibitor and E3 ligase binder and pharmaceutical composition for preventing or treating EZH2-associated disease comprising same as active ingredient” (DAEGU-GYEONGBUK MEDICAL INNOVATION FOUNDATION, priority 2019, dated 2025).

Target: T1, EZH2 protein in LS174T cells (Homo sapiens, UniProt Q15910)
T1 construct: endogenous in cells; host or cells: LS174T
Test: Proteolytic effect in colorectal cancer cells (Western blotting)
Format: cell-based
Conditions: for Grade (percent value of the protein degradation when treated with 1 μM) / %, degradation at 1 uM: EZH2 protein, 72 hours; for %, degradation at 1 uM: Western blotting
Method: After 72 hours of the treatment, the cells were collected and lysed using RIPA buffer (50 mM Tris, pH 7.5, 150 mM NaCl, 1% Triton X-100, 0.1% SDS, […], 0.5% deoxycholate, and protease inhibitor cocktail), followed by sonication (30 sec on/30 sec off, 5 cycles) to prepare a cell lysate.

T1 sequence (Q15910 whole entry): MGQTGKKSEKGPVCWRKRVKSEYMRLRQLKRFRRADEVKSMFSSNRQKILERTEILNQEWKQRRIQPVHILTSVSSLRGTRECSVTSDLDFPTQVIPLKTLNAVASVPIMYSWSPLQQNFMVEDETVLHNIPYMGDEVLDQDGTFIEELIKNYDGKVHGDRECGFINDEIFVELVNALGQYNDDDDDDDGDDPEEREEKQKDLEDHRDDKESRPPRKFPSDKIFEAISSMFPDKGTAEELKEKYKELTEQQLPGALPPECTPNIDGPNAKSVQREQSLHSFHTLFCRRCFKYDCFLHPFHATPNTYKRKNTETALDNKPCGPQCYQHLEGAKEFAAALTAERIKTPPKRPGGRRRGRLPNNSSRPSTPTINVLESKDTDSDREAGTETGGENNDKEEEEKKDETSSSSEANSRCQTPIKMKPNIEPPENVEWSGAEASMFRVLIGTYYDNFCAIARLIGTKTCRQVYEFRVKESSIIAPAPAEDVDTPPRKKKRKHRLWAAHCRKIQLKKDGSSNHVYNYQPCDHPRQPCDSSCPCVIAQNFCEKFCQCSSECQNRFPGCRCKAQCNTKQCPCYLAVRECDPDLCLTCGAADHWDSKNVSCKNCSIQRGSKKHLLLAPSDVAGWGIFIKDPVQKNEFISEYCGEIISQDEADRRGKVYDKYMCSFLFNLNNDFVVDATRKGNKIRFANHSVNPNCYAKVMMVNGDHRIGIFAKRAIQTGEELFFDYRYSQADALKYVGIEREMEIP
T1 sequence (O75530 whole entry partner): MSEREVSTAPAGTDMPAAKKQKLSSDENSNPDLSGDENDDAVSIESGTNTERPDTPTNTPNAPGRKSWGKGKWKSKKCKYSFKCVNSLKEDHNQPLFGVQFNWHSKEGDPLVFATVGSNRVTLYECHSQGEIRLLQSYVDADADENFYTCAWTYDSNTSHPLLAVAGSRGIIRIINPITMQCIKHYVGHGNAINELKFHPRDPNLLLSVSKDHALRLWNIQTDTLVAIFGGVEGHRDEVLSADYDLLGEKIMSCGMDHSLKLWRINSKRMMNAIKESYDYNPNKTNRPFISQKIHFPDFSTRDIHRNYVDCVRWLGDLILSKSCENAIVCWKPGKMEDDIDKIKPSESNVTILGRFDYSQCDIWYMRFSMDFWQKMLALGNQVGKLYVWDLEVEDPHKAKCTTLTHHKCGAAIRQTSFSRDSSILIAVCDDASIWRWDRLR
T1 sequence (Q15022 whole entry partner): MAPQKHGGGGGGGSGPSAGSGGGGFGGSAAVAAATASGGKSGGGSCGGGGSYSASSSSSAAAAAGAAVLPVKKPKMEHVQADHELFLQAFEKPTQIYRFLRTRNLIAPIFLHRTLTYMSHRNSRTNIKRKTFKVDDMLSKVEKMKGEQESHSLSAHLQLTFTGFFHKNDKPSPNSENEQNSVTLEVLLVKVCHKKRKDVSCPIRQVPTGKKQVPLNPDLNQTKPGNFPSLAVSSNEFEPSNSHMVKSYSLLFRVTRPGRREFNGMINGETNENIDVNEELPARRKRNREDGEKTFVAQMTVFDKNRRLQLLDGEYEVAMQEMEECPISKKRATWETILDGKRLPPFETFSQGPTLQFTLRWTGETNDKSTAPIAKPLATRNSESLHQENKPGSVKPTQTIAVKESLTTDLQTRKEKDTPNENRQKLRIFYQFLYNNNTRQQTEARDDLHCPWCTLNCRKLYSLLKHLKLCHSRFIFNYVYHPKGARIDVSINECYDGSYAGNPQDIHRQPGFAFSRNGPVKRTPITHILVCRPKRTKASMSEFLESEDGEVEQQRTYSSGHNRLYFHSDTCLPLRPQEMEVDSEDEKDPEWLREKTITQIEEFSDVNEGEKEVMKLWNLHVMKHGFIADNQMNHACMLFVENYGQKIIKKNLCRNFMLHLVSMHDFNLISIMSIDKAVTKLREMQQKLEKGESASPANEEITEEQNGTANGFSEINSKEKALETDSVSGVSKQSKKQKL

Row | Structure (SMILES) | Grade (percent value of the protein degradation when treated with 1 μM) (LS174T cells) | %, degradation at 1 uM (LS174T cells) [%] | EZH2 proteolytic effect by Western blotting (figure, in words) (FIGS. 1 to 5) | effect of degrading EZH2 protein when treated to colorectal cancer cells (in words) (LS174T cells)
1 | CCN(c1cc(-c2ccc(CN3CCN(C(=O)c4cn(CCCNc5cccc6c5C(=O)N(C5CCC(=O)NC5=O)C6=O)nn4)CC3)cc2)cc(C(=O)NCc2c(C)cc(C)[nH]c2=O)c1C)C1CCOCC1 (centres unmarked) [Example 25, N-((4,6-dimethyl-2-oxo-1,2-dihydropyridine-3-yl)methyl)-4′-((4-(1-(3-((2-(2,6-dioxopiperidine-3-yl)-1,3-dioxoisoindoline-4-yl)amino)propyl)-1H-1,2,3-triazole-4-carbonyl)piperazine-1-yl)methyl)-5-(ethyl(tetrahydro-2H-pyran-4-yl)amino)-4-methyl[1,1′-biphenyl]-3-carboxamide] | D (<25%) | 7.41 | – | –
2 | CCN(c1cc(-c2ccc(CN3CCN(CC(=O)NCCCCCOCCCOCC(=O)Nc4cccc5c4CN(C4CCC(=O)NC4=O)C5=O)CC3)cc2)cc(C(=O)NCc2c(C)cc(C)[nH]c2=O)c1C)C1CCOCC1 (centres unmarked) [Example 27, N-((4,6-dimethyl-2-oxo-1,2-dihydropyridine-3-yl)methyl)-4′-((4-(2-((5-(3-(2-((2-(2,6-dioxopiperidine-3-yl)-1-oxoisoindoline-4-yl)amino)-2-oxoethoxy)propoxy)pentyl)amino)-2-oxoethyl)piperazine-1-yl)methyl)-5-(ethyl(tetrahydro-2H-pyran-4-yl)amino)-4-methyl-[1,1′-biphenyl]-3-carboxamide] | D (<25%) | 2.27 | – | –
3 | CCN(c1cc(-c2ccc(CN3CCN(CC(=O)NCCCCCOCCCOCC(=O)Nc4cccc5c4C(=O)N(C4CCC(=O)NC4=O)C5=O)CC3)cc2)cc(C(=O)NCc2c(C)cc(C)[nH]c2=O)c1C)C1CCOCC1 (centres unmarked) [Example 28, N-((4,6-dimethyl-2-oxo-1,2-dihydropyridine-3-yl)methyl)-4′-((4-(2-((5-(3-(2-((2-(2,6-dioxopiperidine-3-yl)-1,3-dioxoisoindoline-4-yl)amino)-2-oxoethoxy)propoxy)pentyl)amino)-2-oxoethyl)piperazine-1-yl)methyl)-5-(ethyl(tetrahydro-2H-pyran-4-yl)amino)-4-methyl-[1,1′-biphenyl]-3-carboxamide] | D (<25%) | 0 | – | –
4 | CCN(c1cc(-c2ccc(CN3CCN(CC(=O)NCCN4CCN(CCNc5cccc6c5C(=O)N(C5CCC(=O)NC5=O)C6=O)CC4)CC3)cc2)cc(C(=O)NCc2c(C)cc(C)[nH]c2=O)c1C)C1CCOCC1 (centres unmarked) [Example 29, N-((4,6-dimethyl-2-oxo-1,2-dihydropyridine-3-yl)methyl)-4′-((4-(2-((2-(4-(2-((2-(2,6-dioxopiperidine-3-yl)-1,3-dioxoisoindoline-4-yl)amino)ethyl)piperazine-1-yl)ethyl)amino)-2-oxoethyl)piperazine-1-yl)methyl)-5-(ethyl(tetrahydro-2H-pyran-4-yl)amino)-4-methyl-[1,1′-biphenyl]-3-carboxamide] | D (<25%) | 0 | – | –
5 | CCN(c1cc(-c2ccc(CN3CCN(C(=O)c4cn(CCCCCNc5cccc6c5C(=O)N(C5CCC(=O)NC5=O)C6=O)nn4)CC3)cc2)cc(C(=O)NCc2c(C)cc(C)[nH]c2=O)c1C)C1CCOCC1 (centres unmarked) [Example 32, N-((4,6-dimethyl-2-oxo-1,2-dihydropyridine-3-yl)methyl)-4′-((4-(1-(5-((2-(2,6-dioxopiperidine-3-yl)-1,3-dioxoisoindoline-4-yl)amino)pentyl)-1H-1,2,3-triazole-4-carbonyl)piperazine-1-yl)methyl)-5-(ethyl(tetrahydro-2H-pyran-4-yl)amino)-4-methyl-[1,1′-biphenyl]-3-carboxamide] | C (25-50%) | 31.67 | – | –
6 | CCN(c1cc(-c2ccc(CN3CCN(CC(=O)N4CCC5(CCN(CCCCNc6cccc7c6C(=O)N(C6CCC(=O)NC6=O)C7=O)CC5)CC4)CC3)cc2)cc(C(=O)NCc2c(C)cc(C)[nH]c2=O)c1C)C1CCOCC1 (centres unmarked) [Example 33, N-((4,6-dimethyl-2-oxo-1,2-dihydropyridine-3-yl)methyl)-4′-((4-(2-(9-(4-((2-(2,6-dioxopiperidine-3-yl)-1,3-dioxoisoindoline-4-yl)amino)butyl)-3,9-diazaspiro[5.5]undecane-3-yl)-2-oxoethyl)piperazine-1-yl)methyl)-5-(ethyl(tetrahydro-2H-pyran-4-yl)amino)-4-methyl-[1,1′-biphenyl]-3-carboxamide] | A (>75%) | 80.85 | confirming the EZH2 proteolytic effect | excellent effects
7 | CCN(c1cc(-c2ccc(CN3CCN(CC(=O)N4CCC5(CCN(CCCCNc6cccc7c6C(=O)N(C6CCC(=O)NC6=O)C7=O)C5)C4)CC3)cc2)cc(C(=O)NCc2c(C)cc(C)[nH]c2=O)c1C)C1CCOCC1 (centres unmarked) [Example 34, N-((4,6-dimethyl-2-oxo-1,2-dihydropyridine-3-yl)methyl)-4′-((4-(2-(7-(4-((2-(2,6-dioxopiperidine-3-yl)-1,3-dioxoisoindoline-4-yl)amino)butyl)-2,7-diazaspiro[4.4]nonane-2-yl)-2-oxoethyl)piperazine-1-yl)methyl)-5-(ethyl(tetrahydro-2H-pyran-4-yl)amino)-4-methyl-[1,1′-biphenyl]-3-carboxamide] | D (<25%) | 0 | – | –
8 | CCN(c1cc(-c2ccc(CN3CCN(CC(=O)N4CC5(CN(CCCCNc6cccc7c6C(=O)N(C6CCC(=O)NC6=O)C7=O)C5)C4)CC3)cc2)cc(C(=O)NCc2c(C)cc(C)[nH]c2=O)c1C)C1CCOCC1 (centres unmarked) [Example 35, N-((4,6-dimethyl-2-oxo-1,2-dihydropyridine-3-yl)methyl)-4′-((4-(2-(6-(4-((2-(2,6-dioxopiperidine-3-yl)-1,3-dioxoisoindoline-4-yl)amino)butyl)-2,6-diazaspiro[3.3]heptane-2-yl)-2-oxoethyl)piperazine-1-yl)methyl)-5-(ethyl(tetrahydro-2H-pyran-4-yl)amino)-4-methyl-[1,1′-biphenyl]-3-carboxamide] | D (<25%) | 0 | – | –
9 | CCN(c1cc(-c2ccc(CN3CCN(CC(=O)N4CC5(CN(CCNc6cccc7c6C(=O)N(C6CCC(=O)NC6=O)C7=O)C5)C4)CC3)cc2)cc(C(=O)NCc2c(C)cc(C)[nH]c2=O)c1C)C1CCOCC1 (centres unmarked) [Example 36, N-((4,6-dimethyl-2-oxo-1,2-dihydropyridine-3-yl)methyl)-4′-((4-(2-(6-(2-((2-(2,6-dioxopiperidine-3-yl)-1,3-dioxoisoindoline-4-yl)amino)ethyl)-2,6-diazaspiro[3.3]heptane-2-yl)-2-oxoethyl)piperazine-1-yl)methyl)-5-(ethyl(tetrahydro-2H-pyran-4-yl)amino)-4-methyl-[1,1′-biphenyl]-3-carboxamide] | D (<25%) | 0 | – | –
10 | CCN(c1cc(-c2ccc(CN3CCN(CC(=O)NCCCCCCN[C@H](C(=O)N4C[C@H](O)C[C@H]4C(=O)NCc4ccc(-c5scnc5C)cc4)C(C)(C)C)CC3)cc2)cc(C(=O)NCc2c(C)cc(C)[nH]c2=O)c1C)C1CCOCC1 [Example 38, (2S,4R)-1-((S)-2-((6-(2-(4-((3′-(((4,6-dimethyl-2-oxo-1,2-dihydropyridine-3-yl)methyl)carbamoyl)-5′-(ethyl(tetrahydro-2H-pyran-4-yl)amino)-4′-methyl-[1,1′-biphenyl]-4-yl)methyl)piperazine-1-yl)acetamido)hexyl)amino)-3,3-dimethylbutanoyl)-4-hydroxy-N-(4-(4-methylthiazole-5-yl)benzyl)pyrrolidine-2-carboxamide] | D (<25%) | 9.97 | – | –
11 | CCN(c1cc(-c2ccc(CN3CCN(CC(=O)NCCCOCCN[C@H](C(=O)N4C[C@H](O)C[C@H]4C(=O)NCc4ccc(-c5scnc5C)cc4)C(C)(C)C)CC3)cc2)cc(C(=O)NCc2c(C)cc(C)[nH]c2=O)c1C)C1CCOCC1 [Example 39, (2S,4R)-1-((S)-2-((2-(3-(2-(4-((3′-(((4,6-dimethyl-2-oxo-1,2-dihydropyridine-3-yl)methyl)carbamoyl)-5′-(ethyl(tetrahydro-2H-pyran-4-yl)amino)-4′-methyl-[1,1′-biphenyl]-4-yl)methyl)piperazine-1-yl)acetamido)propoxy)ethyl)amino)-3,3-dimethylbutanoyl)-4-hydroxy-N-(4-(4-methylthiazole-5-yl)benzyl)pyrrolidine-2-carboxamide] | D (<25%) | 0 | – | –
12 | CCN(c1cc(-c2ccc(CN3CCN(CC(=O)NCCOCCCN[C@H](C(=O)N4C[C@H](O)C[C@H]4C(=O)NCc4ccc(-c5scnc5C)cc4)C(C)(C)C)CC3)cc2)cc(C(=O)NCc2c(C)cc(C)[nH]c2=O)c1C)C1CCOCC1 [Example 40, (2S,4R)-1-((S)-2-((3-(2-(2-(4-((3′-(((4,6-dimethyl-2-oxo-1,2-dihydropyridine-3-yl)methyl)carbamoyl)-5′-(ethyl(tetrahydro-2H-pyran-4-yl)amino)-4′-methyl-[1,1′-biphenyl]-4-yl)methyl)piperazine-1-yl)acetamido)ethoxy)propyl)amino)-3,3-dimethylbutanoyl)-4-hydroxy-N-(4-(4-methylthiazole-5-yl)benzyl)pyrrolidine-2-carboxamide] | D (<25%) | 0 | – | –
